Measurements reported in US20040048834A1, “Antitumoral compounds” (priority 2000, published 2004).
Where a name gives a salt, the structure may show the parent alone. Read-outs that look alike come from different tables or passages of the source.

Legend:
Format in all cases: cell-based
[1] = system: A549; assay: Cytotoxicity of spisulosine analogs, A549 (after Berjeron et al); settings: methodology after Berjeron et al, NA=not active, read-out: Cytotoxicity IC50 A549
[2] = system: HT29; assay: Cytotoxicity of spisulosine analogs, HT29 (after Berjeron et al); settings: methodology after Berjeron et al, NA=not active, read-out: Cytotoxicity IC50 HT29
[3] = system: MEL28; assay: Cytotoxicity of spisulosine analogs, MEL28 (after Berjeron et al); settings: methodology after Berjeron et al, NA=not active, read-out: Cytotoxicity IC50 MEL28
[4] = system: P388; assay: Cytotoxicity of spisulosine analogs, P388 (after Berjeron et al); settings: methodology after Berjeron et al, NA=not active, read-out: Cytotoxicity IC50 P388
[5] = system: DU145; assay: Cytotoxicity of spisulosine analogs, DU145 (after Berjeron et al); settings: methodology after Berjeron et al, NA=not active, read-out: Cytotoxicity IC50 DU145

| SMILES | IC50 ([1]; Homo sapiens, A549, A549) | IC50 ([2]; Homo sapiens, HT-29, HT29) | IC50 ([1]; A549) | IC50 ([2]; HT29) | other results |
| --- | --- | --- | --- | --- | --- |
| CCCCCCCCCCCCCCCCCC[C@@H](O)[C@H](C)N [drawing 53, (2S,3R)-2-Amino-3-heneicosanol hydrochloride] |  |  |  |  | IC50 ([1]; A549, hydrochloride): 27.5 nM; IC50 ([2]; HT29, hydrochloride): 27.5 nM |
| CCCCCCCCCCCCCCCC[C@@H](O)[C@H](C)N [drawing 49, (2S,3R)-2-Amino-3-nonadecanol hydrochloride] | 29.8 nM | 29.8 nM |  |  |  |
| CCCCCCCCCCCCCCC[C@@H](OC(=O)C(F)(F)F)[C@H](C)N |  |  | 20.2 nM | 20.2 nM |  |
| CCCCCCCCCCCCC/C=C/[C@@H](O)[C@@H](N)CF | 33.2 nM | 33.2 nM |  |  |  |
| CCCCCCCCCCCCCCC[C@H](O)[C@H](C)N [(2S,3S)-2-Amino-3-octadecanol] | 350 nM | 350 nM |  |  | IC50 ([3]; Homo sapiens, SK-MEL-28, MEL28): 350 nM; IC50 ([4]; Mus musculus, P388, P388): 350 nM; IC50 ([5]; Homo sapiens, DU-145, DU145): 350 nM |
| CCCCCCCCCCCCCCC[C@@H](O)[C@H](C)N [drawing 47, (2S,3R)-2-Amino-3-octadecanol hydrochloride] |  |  |  |  | IC50 ([3]; MEL28, hydrochloride): 311 nM; IC50 ([1]; A549, hydrochloride): 31.1 nM; IC50 ([2]; HT29, hydrochloride): 15.5 nM; IC50 ([4]; P388, hydrochloride): 31.1 nM; IC50 ([5]; DU145, hydrochloride): 31.1 nM |
| CCCCCCCCCCCCCCC[C@@H](O)[C@H](C)N [drawing 46, Bis-((2S,3R)-2-ammonium-3-octadecanol) L-tartrate] | 27.7 nM | 27.7 nM |  |  | IC50 ([3]; MEL28): 27.7 nM; IC50 ([4]; Mus musculus, P388, P388): 27.7 nM; IC50 ([5]; Homo sapiens, DU-145, DU145): 27.7 nM |
| CCCCCCCCCCCCCCCC[C@@H](O)[C@H](C)NS(C)(=O)=O |  |  | 265 nM | 265 nM |  |
| CCCCCCCCCCCCCCCC[C@@H](O)[C@@H](N)CC [drawing 60, (3S,4R)-3-Amino-4-eicosanol] |  |  | 319 nM | 319 nM |  |
| CCCCCCCCCCCCCCCCC[C@@H](O)[C@H](C)N [drawing 51, (2S,3R)-2-Amino-3-eicosanol hydrochloride] |  |  |  |  | IC50 ([1]; A549, hydrochloride): 14.3 nM; IC50 ([2]; HT29, hydrochloride): 14.3 nM |
| CCCCCCCCCCC[C@@H](O)[C@H](C)N [(2S,3R)-2-Amino-3-tetradecanol] | 2180 nM | 436 nM |  |  | IC50 ([3]; Homo sapiens, SK-MEL-28, MEL28): 2180 nM; IC50 ([4]; Mus musculus, P388, P388): 436 nM; IC50 ([5]; Homo sapiens, DU-145, DU145): 2180 nM |
| CCCCCCCCCCCCCCCC[C@@H](O)[C@@H](N)CC [drawing 61, (3S,4R)-3-Amino-4-eicosanol hydrochloride] |  |  |  |  | IC50 ([1]; A549, hydrochloride): 28.6 nM; IC50 ([2]; HT29, hydrochloride): 28.6 nM |
| CCCCCCCCCCCCCCC[C@@H](O)[C@@H](N)CCC [drawing 64, (4S,5R)-4-Amino-5-eicosanol] |  |  | 159 nM | 159 nM |  |
| CCCCCCCCCCCCCC[C@@H](O)[C@H](C)N [drawing 44, (2S,3R)-2-Amino-3-heptadecanol] | 36.8 nM | 36.8 nM |  |  | IC50 ([3]; Homo sapiens, SK-MEL-28, MEL28): 36.8 nM; IC50 ([4]; Mus musculus, P388, P388): 36.8 nM; IC50 ([5]; Homo sapiens, DU-145, DU145): 36.8 nM |
| CCCCCCCCCCCCCCC[C@@H](O)[C@H](C)NS(C)(=O)=O |  |  | 27.5 nM | 27.5 nM |  |
| CCCCCCCCCCCCCC[C@@H](O)[C@@H](N)CC [drawing 57, (3s,4R)-3-Amino-4-octadecanol hydrocloride] |  |  | 15.5 nM | 15.5 nM |  |
| CCCCCCCCCCCCCCCCC[C@@H](O)[C@@H](N)CC [drawing 62, (3S,4R)-3-Amino-4-heneicosanol] | 30.5 nM | 30.5 nM |  |  |  |
| CCCCCCCCCCCCCCC[C@@H](O)[C@H](C)NC |  |  | 334 nM | 334 nM | IC50 ([3]; MEL28): 334 nM; IC50 ([4]; P388): 334 nM; IC50 ([5]; DU145): 334 nM |
| CCCCCCCCCCCCCCC[C@@H](O)[C@@H](N)CCCN [drawing 71, (4S,5R)-1,4-Diamino-5-eicosanol] | 1520 nM | 1520 nM |  |  |  |
| CCCCCCCCCCCCCCC[C@@H](O)[C@H](C)N [drawing 36, spisulosine-285, reference compound] |  |  | 35 nM | 35 nM | IC50 ([3]; MEL28): 175 nM; IC50 ([4]; P388): 35 nM; IC50 ([5]; DU145): 35 nM |
| CCCCCCCCCCCCCCC[C@@H](O)[C@@H](N)Cc1ccc(O)cc1 [drawing 69, (2S,3R)-2-Amino-1-(4′-hydroxyphenyl)-3-octadecanol] |  |  | 1320 nM | 1320 nM |  |
| CCCCCCCCCCCCCCC[C@@H](O)[C@@H](N)CC [drawing 59, (3S,4R)-3-Amino-4-nonadecanol hydrochloride] |  |  |  |  | IC50 ([1]; A549, hydrochloride): 2.98 nM; IC50 ([2]; HT29, hydrochloride): 2.98 nM |
